Read-outs that look alike come from different tables or passages of the source.
Assays:
[1] = biological target: metalloelastase (MMP-12) (Homo sapiens, UniProt P39900); assay: MMP-12 enzyme inhibition assay (coumarin-labelled peptide substrate McaPLGLDpaAR); format: biochemical
Description: (§1) Stock solutions were made up as follows: Assay Butter: 100 mM Tris-HCl pH 7.6 is containing 100 mM NaCl, 10 mM CaCl2, and 0.05% Brij 35.
(§2) Substrate: 0.4 mM McaPLGLDpaAR (from Bachem) (0.437 mg/ml) stock solution in 100% DMSO (stored at −20° C.). Dilute to 8 μM in assay butter.
(§3) Enzyme: Recombinant human 92 kDa gelatinase (MMP-9; APMA (4-aminophenyl mercuric acetate)-activated if necessary) appropriately diluted in assay butter.
(§4) Test Compounds were prepared initially as 10 mM compound solution in 100% DMSO, diluted to 1 mM in 100% DMSO, then serially diluted 3-fold in 100% DMSO across columns 1-10 of a 96-well microtitre plate Assay concentration range, 100 μM (column 1) to 5.1 nM (column 10).
(§5) The assay was performed in a total volume of 100 μL per well in 96-well microfilm plates. Activated enzyme (20 μL) was added to the wells followed by 20 μL of assay butter. Appropriate concentrations of test compounds dissolved in 10 μL of DMSO were then added followed by 50 μL of McaPLGLDpaAR (8 μM, prepared by dilution of DMSO stock in assay butter). For each as say ten concentrations of test compound were examined in duplicate. Control wells lack either enzyme or test compound. The reactions were incubated at 37° C. for 2 hours. The fluorescence at 405 nm was measured immediately with an SLT Fluostar fluorometer (SL T Labinstruments GmbH, Grödig, Austria) using 320 nm excitation, without stopping the reaction.
(§6) The effect of the test compound was determined from the dose response curve generated by the 10 duplicate concentrations of inhibitor. The IC50 (the concentration of compound required to give a 50% decrease in enzyme activity) was obtained by fitting data to the equation, Y=a+((b−a)/(1+(c/X)^d)). (Y=inhibition achieved for a particular dose; X=the dose in nM; a=minimum y or zero % inhibition; b=maximum y or 100% inhibition; c=is the IC50; d=is the slope). The result was rounded to one significant figure.
Compounds of the invention were tested for inhibitory activity against metalloelastase (MMP-12) in an assay using a coumarin-labelled peptide substrate, (7-methoxycoumarin-4-yl)acetyl-Pro-Leu-Gly-Leu-(3-[2,4-dinitrophenyl]-L-2,3-diaminopropionyl)-Ala-Arg-NH2 (McaPLGLDpaAR) (Knight et al, 1992, above). The protocol for this assay was as described for the MMP-9 assay above.

[2] = biological target: T1, gelatinase A (MMP-2) (Homo sapiens, UniProt P08253); assay: MMP-2 enzyme inhibition assay (coumarin-labelled peptide substrate McaPLGLDpaAR); format: biochemical
T1 sequence (P08253 110-660): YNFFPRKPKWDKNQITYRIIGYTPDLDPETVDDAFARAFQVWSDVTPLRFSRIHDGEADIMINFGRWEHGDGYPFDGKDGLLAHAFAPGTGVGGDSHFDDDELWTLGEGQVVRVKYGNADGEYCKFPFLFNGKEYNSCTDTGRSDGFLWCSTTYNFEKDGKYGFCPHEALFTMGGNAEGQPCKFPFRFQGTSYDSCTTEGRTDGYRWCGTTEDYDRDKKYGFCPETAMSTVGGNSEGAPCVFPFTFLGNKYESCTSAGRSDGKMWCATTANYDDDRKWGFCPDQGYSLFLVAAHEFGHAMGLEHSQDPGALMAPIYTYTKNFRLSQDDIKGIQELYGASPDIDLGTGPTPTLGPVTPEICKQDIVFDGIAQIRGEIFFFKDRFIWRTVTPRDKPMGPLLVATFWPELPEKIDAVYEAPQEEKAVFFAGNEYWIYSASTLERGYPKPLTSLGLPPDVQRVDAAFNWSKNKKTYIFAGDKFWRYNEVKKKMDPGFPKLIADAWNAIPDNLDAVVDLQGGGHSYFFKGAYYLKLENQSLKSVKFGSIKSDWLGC
Description: as §1, §2, §3, §4, §5, §6
(§7) Compounds of the invention were tested for inhibitory activity against gelatinase A (MMP-2) in an assay using a coumarin-labelled peptide substrate, (7-methoxycoumarin-4-yl)acetyl-Pro-Leu-Gly-Leu-(3-[2,4-dinitrophenyl]-L-2,3diaminopropionyl)-Ala-Arg-NH2 (Mca PLGLDpaAR) (Knight et al, 1992, above). The protocol for this assay was as described for the MMP-9 assay above.

[3] = biological target: 92 kDa gelatinase (MMP-9) (Homo sapiens, UniProt P14780); assay: MMP-9 enzyme inhibition assay (coumarin-labeled peptide substrate McaPLGLDpaAR); format: biochemical
Description: Compounds of the invention were tested for inhibitory activity against 92 kDa gelatinase (MMP-9) in an assay using a coumarin-labeled peptide substrate, (7-methoxycoumarin-4-yl)acetyl-Pro-Leu-Gly-Leu-(3-[2,4-dinitrophenyl]-L-2,3diaminopropionyl)-Ala-Arg-NH2 (McaPLGLDpaAR) (Knight et al, FEBS Lett. 1992; 263-266).
as §1, §2, §3, §4, §5, §6

[4] = test system: IL-2-induced peritoneal recruitment of lymphocytes; assay: IL-2-induced peritoneal recruitment of lymphocytes; format: in vivo, C3H/HEN mice; conditions: mice, 15 min prior to IL-2, cells collected 24 h after IL-2
Description: Administration of IL-2 intraperitoneally causes migration of lymphocytes into the intraperitoneal cavity. This is a model for the cellular migration that occurs during inflammation.
C3H/HEN mice (Elevage Janvier, France) were intraperitoneally injected with IL-2 (Serono Pharmaceutical Research Institute, 20 μg/kg, in saline).
Compounds of the invention were suspended in 0.5% carboxymethylcellulose (CMC)/0.25% tween-20 and were administered by s.c. or p.o. route (10 ml/kg) 15 min prior to administration of IL-2.
Twenty-four hours after administration of IL-2, peritoneal white blood cells were collected by 3 successive lavages of the peritoneal cavity with 5 ml phosphate buffered saline (PBS)-1 mM EDTA (+4° C.). The suspension was centrifuged (1700 g×10 min at +4° C.). The resulting pellet was suspended in 1 ml PBS-1 mM EDTA.
Lymphocytes were identified and counted using a Beckman/Coulter counter.
The animals were divided into 6 groups (6 mice each group):
Group 1: (baseline) received 0.5% CMC/0.25% tween-20 (vehicle of compound of the invention) and saline (vehicle of IL-2);
Group 2: (control IL-2) received 0.5% CMC/0.25% tween-20 and injection of IL-2;
Group 3: Experimental group (Compound of the invention Dose 1) received a compound of the invention and injection of IL-2;
Group 4: Experimental group (Compound of the invention Dose 2) received a compound of the invention and injection of IL-2;
Group 5: Experimental group (Compound of the invention Dose 3) received a compound of the invention and injection of IL-2;
Group 6: Reference group received reference compound dexamethasone and injection of IL-2.
Inhibition of lymphocyte recruitment was calculated as follows:
Where Ly 1=Number of lymphocytes in group 1 (E3/μl), Ly 2=Number of lymphocytes in group 2 (E3/μl), Ly X=Number of lymphocytes in group X (3-5) (E3/μl).

[5] = biological target: T2, collagenase (MMP-1) (Homo sapiens, UniProt P03956); assay: MMP-1 enzyme inhibition assay (coumarin-labelled peptide substrate McaPLGLDpaAR); format: biochemical
T2 sequence (P03956 100-469): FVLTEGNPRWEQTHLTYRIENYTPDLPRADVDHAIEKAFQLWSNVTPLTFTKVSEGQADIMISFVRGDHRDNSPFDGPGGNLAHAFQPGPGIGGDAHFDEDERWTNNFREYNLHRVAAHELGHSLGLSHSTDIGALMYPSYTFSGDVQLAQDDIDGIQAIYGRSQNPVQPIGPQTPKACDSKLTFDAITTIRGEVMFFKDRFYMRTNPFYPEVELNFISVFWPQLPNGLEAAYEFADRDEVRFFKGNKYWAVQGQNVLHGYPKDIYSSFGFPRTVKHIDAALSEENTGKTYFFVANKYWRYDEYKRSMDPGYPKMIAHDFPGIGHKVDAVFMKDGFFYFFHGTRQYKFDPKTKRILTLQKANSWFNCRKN
Description: as §1, §2, §3, §4, §5, §6
as §7, with “collagenase (MMP-1)” for “gelatinase A (MMP-2)”

[6] = Table 1, compounds of Formula (I), read-out: MMP-12 IC50
[7] = Table 1, compounds of Formula (I), read-out: MMP-2 IC50
[8] = Table 1, compounds of Formula (I), read-out: MMP-9 IC50
[9] = dose 1 mg/kg po, Table 3, Formula (I)
[10] = Table 1, compounds of Formula (I), read-out: MMP-1 IC50
[11] = dose 1 mg/kg po, Table 4, Formula (VI)

Sequence of 92 kDa gelatinase (MMP-9) (P14780 107-707 limits assumed): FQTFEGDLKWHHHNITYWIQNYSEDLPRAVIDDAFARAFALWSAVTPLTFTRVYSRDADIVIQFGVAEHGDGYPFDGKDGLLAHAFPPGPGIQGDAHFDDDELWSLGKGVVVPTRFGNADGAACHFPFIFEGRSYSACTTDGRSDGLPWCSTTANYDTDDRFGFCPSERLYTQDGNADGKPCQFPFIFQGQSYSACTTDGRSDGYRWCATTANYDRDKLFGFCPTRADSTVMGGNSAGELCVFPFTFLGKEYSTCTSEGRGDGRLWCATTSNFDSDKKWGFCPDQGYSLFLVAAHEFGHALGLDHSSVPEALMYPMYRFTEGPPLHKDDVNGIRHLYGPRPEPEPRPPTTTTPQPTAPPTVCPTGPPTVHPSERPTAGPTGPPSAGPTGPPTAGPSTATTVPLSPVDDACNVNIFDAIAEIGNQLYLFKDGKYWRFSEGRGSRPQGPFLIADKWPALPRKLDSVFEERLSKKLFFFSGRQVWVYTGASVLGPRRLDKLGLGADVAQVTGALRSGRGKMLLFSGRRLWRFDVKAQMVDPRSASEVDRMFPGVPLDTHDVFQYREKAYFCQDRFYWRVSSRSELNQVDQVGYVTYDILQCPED
Sequence of metalloelastase (MMP-12) (P39900 106-470): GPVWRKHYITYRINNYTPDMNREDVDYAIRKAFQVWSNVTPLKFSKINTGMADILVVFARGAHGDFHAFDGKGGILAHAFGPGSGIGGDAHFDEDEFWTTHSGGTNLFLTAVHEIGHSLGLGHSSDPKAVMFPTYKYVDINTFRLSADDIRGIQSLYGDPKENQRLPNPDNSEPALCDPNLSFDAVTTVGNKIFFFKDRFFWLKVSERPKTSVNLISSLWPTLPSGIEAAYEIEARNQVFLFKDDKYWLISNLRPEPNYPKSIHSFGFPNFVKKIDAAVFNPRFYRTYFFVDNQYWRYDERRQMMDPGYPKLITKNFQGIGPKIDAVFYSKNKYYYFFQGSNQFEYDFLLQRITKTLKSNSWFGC

SMILES: CCOc1ccc(CCCC(C(=O)N2CCN(c3ccccn3)C[C@H]2C)[C@H](O)C(=O)NO)cc1 (mixture of isomers) [Example 6, (2S,3S)-6-(4-ethoxyphenyl)-N,2-dihydroxy-3-{[(2R)-2-methyl-4-pyridin-2-ylpiperazin-1-yl]-carbonyl}hexanamide]
- IC50 [1, 6]: 20 nM
- IC50 [2, 7]: 8 nM
- IC50 [3, 8]: 22 nM
- % inhibition of IL-2-induced peritoneal recruitment of lymphocytes [4, 9]: 46%
- % inhibition of IL-2-induced peritoneal recruitment of lymphocytes ([4]; dose 3 mg/kg po, Table 3, Formula (I)): 65%
- IC50 [5, 10]: > 5 µM

SMILES: CC(C)C[C@H](C(=O)N1CCN(c2ccccn2)C[C@H]1C)[C@H](O)C(=O)NO (single isomer, unassigned) [Example 4]
- IC50 [1, 6]: 17 nM
- IC50 [2, 7]: 4 nM
- IC50 [3, 8]: 12 nM
- % inhibition of IL-2-induced peritoneal recruitment of lymphocytes [4, 9]: 39%
- IC50 [5, 10]: 0.301 µM

SMILES: CCOc1ccc(CCC[C@@H](C(=O)N2CCC(Nc3ccccc3)CC2)[C@H](O)C(=O)NO)cc1 [Example 20, (2S,3R)-3-[(4-anilinopiperidin-1-yl)carbonyl]-6(4-ethoxyphenyl)-N,2-dihydroxyhexanamide]
- IC50 [1]: 29 nM
- IC50 [2]: 82 nM
- IC50 [3]: 37 nM
- % inhibition of IL-2-induced peritoneal recruitment of lymphocytes [4, 11]: 38%
- IC50 [5]: > 5 µM

SMILES: CCOc1ccc(CCC[C@@H](C(=O)N2CCN(CCN3CCOCC3)CC2)[C@H](O)C(=O)NO)cc1 [Example 37, (2S,3R)-6-(4-ethoxyphenyl)-N,2-dihydroxy-3-{[4-(2-morpholin-4-ylethyl)piperazin-1-yl]-carbonyl}hexanamide]
- IC50 ([1]; Table 2, compounds of Formula (VI), read-out: MMP-12 IC50): 23 nM
- IC50 ([2]; Table 2, compounds of Formula (VI), read-out: MMP-2 IC50): 65 nM
- IC50 ([3]; Table 2, compounds of Formula (VI), read-out: MMP-9 IC50): 52 nM
- % inhibition of IL-2-induced peritoneal recruitment of lymphocytes [4, 11]: 42%
- IC50 ([5]; Table 2, compounds of Formula (VI), read-out: MMP-1 IC50): > 5 µM

SMILES: CCOc1ccc(CCC[C@@H](C(=O)N2C[C@@H]3C[C@H]2CN3c2ccc(F)cc2)[C@H](O)C(=O)NO)cc1 [Example 47, (2S,3R)-6-(4-ethoxyphenyl)-3-{[(1S,4S)-5-(4-fluorophenyl)-2,5-diazabicyclo[2.2.1]hept-2-yl]carbonyl}-N,2-dihydroxyhexanamide]
- % inhibition of IL-2-induced peritoneal recruitment of lymphocytes [4, 11]: 41%

SMILES: CC(C)C[C@H](C(=O)N1CCN(c2ccc(-c3ccccc3)cc2)C[C@H]1C)[C@H](O)C(=O)NO [Example 53, (2S,3S)-3-{[(2R)-4-biphenyl-4-yl-2-methylpiperazin-1-yl]carbonyl}-N,2-dihydroxy-5-methylhexanamide]
- IC50 [1, 6]: 5 nM
- IC50 [2, 7]: 7.5 nM
- IC50 [3, 8]: 7 nM
- % inhibition of IL-2-induced peritoneal recruitment of lymphocytes [4, 9]: 61%
- IC50 [5, 10]: > 5 µM

SMILES: CC(C)C[C@H](C(=O)N1CC=C(c2ccccc2)CC1)[C@@H](O)C(=O)NO [Example 61, (2R,3S)-N,2-dihydroxy-5-methyl-3-[(4-phenyl-3,6-dihydropyridin-1(2H)-yl)carbonyl]hexanamide]
- IC50 [1, 6]: 2 nM
- IC50 [2, 7]: 8 nM
- IC50 [3, 8]: 48 nM
- % inhibition of IL-2-induced peritoneal recruitment of lymphocytes [4, 9]: 67%
- IC50 [5, 10]: > 5 µM
